Experimental data published in patent US7964614B2, “Systemic inflammatory markers as diagnostic tools in the prevention of atherosclerotic diseases and as tools to aid in the selection of agents to be used for the prevention and treatment of atherosclerotic disease” (The Brigham and Women's Hospital, Inc., priority 1997, dated 2011).

Columns and labels:
[1] = system: apparently healthy men (US male physicians); conditions: whole trial population, 325 mg aspirin on alternate days vs placebo (reference 1); cited from earlier work
[2] = system: apparently healthy men (US male physicians); test: Physicians' Health Study: randomized, double-blind, placebo controlled trial of aspirin in primary prevention; risk of first myocardial infarction, stratified by baseline C-reactive protein quartile; assay type: in vivo, human; conditions: 325 mg aspirin on alternate days vs placebo, events prior to Jan. 25, 1988
Description: The Physicians' Health Study is a randomized, double-blind, placebo controlled, 2×2 factorial trial of aspirin and beta-carotene in the primary prevention of cardiovascular disease and cancer. A total of 22,071 US male physicians aged 40 to 84 years in 1982 with no history of myocardial infarction, stroke, transient ischemic attack, or cancer were assigned to one of four treatment groups: 325 mg aspirin on alternate days (Bufferin, provided by Bristol-Myers), 50 mg of beta-carotene on alternate days (Lurotin, provided by BASF Corporation), both, or neither. The aspirin component of the PHS was terminated early on Jan. 25, 1988 primarily due to a statistically extreme 44 percent reduction in risk of first infarction in the aspirin group.^1 The beta-carotene component continued to scheduled termination on Dec. 31, 1995.^2 Hospital records (and for fatal events, death certificates and necropsy reports) were requested for all reported cases of myocardial infarction, stroke, and venous thrombosis. Records were reviewed by a committee of physicians using standardized criteria to confirm or refute reported events. Endpoints reviewers were blinded to treatment assignment. Reported myocardial infarction was confirmed if the event met World Health Organization criteria of symptoms plus either elevated enzymes or characteristic electrocardiographic changes. Silent myocardial infarctions were not included since they could not be dated accurately. Deaths due to coronary disease were confirmed based on autopsy reports, symptoms, circumstances of death, and prior history of coronary disease. Reported stroke was confirmed based on medical records showing neurological deficit of sudden or rapid onset persisting for more than 24 hours or until death. Strokes were classified as ischemic or hemorrhagic. Computed tomography was available for more than 95 percent of confirmed strokes. Reported deep venous thrombosis was confirmed by documentation of a positive venography study or a positive ultrasound study; deep venous thrombosis documented only by impedance plethysmography or Doppler examination without ultrasound were not confirmed. […] Using these methods, we evaluated 543 cases and 543 controls in this prospective nested case-control design. Means or proportions for baseline risk factors were calculated for cases and controls. […] Because C-reactive protein levels are skewed, median levels were computed and the significance of any differences in median values between cases and controls assessed using Wilcoxon's Rank Sum Test. […] Similar models were employed to adjust for measured baseline levels of total and HDL cholesterol, triglyceride, lipoprotein(a), tPA antigen, fibrinogen, D-dimer, and homocysteine. […]

For CC(=O)Oc1ccccc1C(=O)O [aspirin], the “reduction in risk of first infarction in the aspirin group” value [1] is listed as 44%, the “reduction in risk of myocardial infarction associated with aspirin use” value (from here on “reduction in risk … with aspirin use”) ([2]; first (lowest) quartile of baseline C-reactive protein) is listed as 13.9% and the “reduction in risk … with aspirin use” value ([2]; fourth (highest) quartile of baseline C-reactive protein) is listed as 55.7%. For the same compound, the “reduction in risk … with aspirin use” value ([2]; second quartile of baseline C-reactive protein) was 33.4% and the “reduction in risk … with aspirin use” value ([2]; third quartile of baseline C-reactive protein) was 46.3%.
